{
  "source": "patent US9790520B2",
  "about": "“Antimicrobial method for fermentation processes” (DeLaval Holding AB, priority 2010, dated 2017)",
  "key": {"[1]": {"system": "yeast", "test": "Full scale ethanol plant trial: alcohol production, yeast counts/viability, glycerol", "assay_type": "cell-based, Saccaromyces cerevisiae", "method": "A number of full scale trials were conducted in order to evaluate the efficacy of introducing peracetic acid and hydrogen peroxide into a fermentation system was evaluated and compared to the use of conventional antibiotics. The ethanol plant tested is a 20 MGPY plant having a modified Delta T design. The plant process flow is as follows: • Corn mash cooler stage one→Corn mash cooler stage 2→fermenter←→fermenter cooler→distillation The corn mash enters the stage one cooler at 180° F. and is cooled to 140° F. It then enters the stage 2 cooler and is cooled to 90° F. Flow through the cooler is 110 gpm. From the stage 2 cooler the mash is sent to the fermenter. Once in the fermenter, the corn mash is re-circulated through a plate and frame mash cooler. When the fermenter has been filled for 30 minutes, yeast is added to the recirculating corn mash. The fermenter takes about 23 hours to fill. Once filled, fermentation begins to accelerate releasing heat which is dissipated in the fermenter cooler. The fermenter mash is sent to distillation about 56 hours after the fermenter is filled. System parameters are as follows:\nDuring fermentation, carbohydrates, ethanol, and organic acids are monitored in order to insure that the fermentation process is occurring normally and to insure that undesirable bacteria are kept under control. […]"}, "[2]": {"test": "Residual PAA and HP in corn mash by Hach DPD total chlorine test", "assay_type": "physicochemical", "quoted_text": "At the point of injection, the mash temperature was 140° F. and the mash flow rate was 110 gpm. The pumps used to pump both the HP and PAA solution were Prominent diaphragm pumps fitted with Teflon liquid ends. The dose of the PAA solution was 15 ppm (as PAA) and the dose of the HP was 40 ppm (as peroxide). However, the PAA solution and HP were fed for only 15 hours of the 23 hour fermentor fill time making the overall dose 9.8 ppm of PAA solution and 26 ppm of HP.\nSamples were taken every hour at the mash cooler exit and fermentation tank. The samples were tested using a Hach DPD total chlorine test. Three (3) ml of sample was added to a test tube, then one DPD powder pillow was added to the sample. […] Peracetic acid (PAA) concentration was estimated based on the hue of pink color after 30 seconds."}},
  "data": [
    {"compound": "Virginiamycin [antibiotics]", "values": [
      {"measurement": "glycerol levels (indicative of stress on the yeast)", "setting": "[1]", "value": "tended to increase"}
    ]},
    {"compound": "CC(=O)OO", "note": "[PAA, peracetic acid]", "values": [
      {"measurement": "PAA in fermenter corn mash", "setting": "[2]; after two hours", "value": "not detectable"},
      {"measurement": "PAA in fermenter corn mash", "setting": "[2]; up to two hours into filling", "value": "positive"}
    ]},
    {"compound": "OO", "note": "[HP, hydrogen peroxide]", "values": [
      {"measurement": "HP in fermenter corn mash", "setting": "[2]; after 3 hours", "value": "not detectable"}
    ]}
  ]
}
